Data on 38 compounds can be found in ChEMBL document CHEMBL1137798, “Evaluation of natural products as inhibitors of human immunodeficiency virus type 1 (HIV-1) reverse transcriptase” (J Nat Prod, 1991).

Where a name gives a salt, the structure may show the parent alone.

The term IC50 denotes the concentration that inhibits the measured activity by half. One may read the inhibition as how much of the control response was suppressed. Low readings indicate a weak effect, high ones a strong effect.

In one test the target is Human immunodeficiency virus type 1 reverse transcriptase (Human immunodeficiency virus 1, UniProt Q72547). To be noted: read-out: IC50 (converted).
`COc1ccc2c(c1OC)CN1CCc3cc4c(cc3C1C2)OCO4` (configuration not stated) [TETRAHYDROBERBERINE]: the concentration for half-maximal inhibition (IC50) is more than 589 µM. Same read-out and setting: the same measure for `COc1ccc2c(c1O)-c1c(O)c(OC)cc3c1[C@H](C2)[N+](C)(C)CC3` [MAGNOFLORINE CHLORIDE]: more than 529 µM; for `COc1cc2c(cc1OC)[C@@H]1Cc3ccc(OC)c(O)c3CN1CC2` [TETRAHYDROPALMATRUBINE]: more than 586 µM.

Take `COc1cc2c(ccc3c4cc(OC)c(OC)cc4cnc23)cc1O`: the IC50 is more than 596 µM.

Take `COc1cc2c(c3c1c(=O)c1ccccc1n3C)C=CC(C)(C)O2` [ACRONINE]: the IC50 is more than 622 µM. As for `CC[C@@H]1CN2CCc3c([nH]c4ccccc34)[C@@H]2C[C@@H]1/C(=C\OC)C(=O)OC` [CORYNANRHEIDINE], the IC50 was more than 543 µM. On the same count and under the same terms, the same measure for `COC(=O)C1=CO[C@@H](C)[C@@H]2CN3CCc4c([nH]c5ccc(OC)cc45)[C@@H]3C[C@H]12` [ARICINE]: more than 523 µM.

On to `COc1c2occc2c(OC)c2c(=O)cc(C)oc12` [KHELLIN], for which the concentration for half-maximal inhibition (IC50) was more than 769 µM.

Regarding `C/C=C1/CN[C@H]2Cc3c([nH]c4ccccc34)C(=O)C[C@@H]1[C@@H]2C(=O)OC` [PERIVINE], the IC50 was more than 591 µM. With `C[C@H]1CC[C@]2(NC1)O[C@H]1C[C@H]3[C@@H]4CC[C@H]5C[C@@H](O[C@@H]6O[C@H](CO)[C@H](O[C@@H]7O[C@H](CO)[C@@H](O)[C@H](O[C@@H]8OC[C@@H](O)[C@H](O)[C@H]8O)[C@H]7O[C@@H]7O[C@H](CO)[C@@H](O)[C@H](O)[C@H]7O)[C@H](O)[C@H]6O)CC[C@]5(C)[C@H]4CC[C@]3(C)[C@H]1[C@@H]2C` [TOMATINE], the IC50 was more than 193 µM. Still for that read-out and setting: the same measure for `C1CCN2C[C@]34C[C@H](C[C@@H]5CCCN([C@@H]6CCC[C@@H]3N6)[C@H]54)[C@H]2C1` [PANAMINE]: more than 634 µM. Regarding `COC(=O)C1=CO[C@@H](O[C@@H]2O[C@H](CO)[C@@H](O)[C@H](O)[C@H]2O)[C@H]2[C@@H]1C=C[C@@]21C=C([C@H](C)O)C(=O)O1` [PLUMIERIDE], the IC50 is more than 425 µM. Take `CC[C@]1(O)C[C@H]2CN(CCc3c([nH]c4ccccc34)[C@@](C(=O)OC)(c3cc4c(cc3OC)N(C=O)[C@H]3[C@@](O)(C(=O)OC)[C@H](OC(C)=O)[C@]5(CC)C=CCN6CC[C@]43[C@@H]65)C2)C1` [VINCRISTINE]: the IC50 is more than 242 µM. On to `CC(=O)O[C@@H]1[C@@H](O)[C@H](O[C@H]2[C@H](OC(=O)[C@H]3CC[C@@H]4[C@H](C3)O[C@@]3(C[C@H](OC(=O)/C=C/c5ccccc5)[C@H](C)CO3)[C@]43CO3)O[C@H](C)[C@@H](O)[C@@H]2OC(C)=O)O[C@H](C)[C@H]1O` [PHYLLANTHOSIDE], for which the IC50 was more than 248 µM.

On to `CC(=O)O[C@@H]1[C@H]2[C@H]3C[C@H]4C5=Nc6ccccc6[C@]51C[C@@H]2N4[C@H](C)C3C=O` (some centres not stated) [PERAKINE], for which the IC50 is more than 571 µM. Same read-out and setting: the same measure for `CC1(C)O[C@H]2CC(=O)OC[C@]23[C@H]2CC[C@@]4(C)[C@H](c5ccoc5)OC(=O)[C@H]5O[C@]54[C@]2(C)C(=O)C[C@@H]13` [LIMONIN]: more than 425 µM; for `CC(=O)O[C@H]1CC(=O)OC(C)(C)[C@@H]2CC(=O)[C@]3(C)[C@H](CC[C@@]4(C)[C@@H](c5ccoc5)OC(=O)[C@H]5O[C@]543)[C@@]12C` [NOMILIN]: more than 389 µM; for `COc1coc(CO)cc1=O`: more than 1280 µM.

Consider `O=c1oc2c(O)c(O)cc3c(=O)oc4c(O)c(O)cc1c4c23` [ELLAGIC ACID], for which the IC50 was less than 496 µM. Same read-out and setting: the same measure for `O=C(/C=C/c1ccc(O)cc1)OC[C@H]1O[C@@H](Oc2c(-c3ccc(O)cc3)oc3cc(O)cc(O)c3c2=O)[C@H](O)[C@@H](O)[C@@H]1O` [TILIROSIDE]: less than 336 µM; for `C=C1C/C(=C/C)C(=O)O[C@@H]2CCN3CC=C(COC(=O)[C@]1(C)O)[C@H]23` [SENECIPHYLLINE]: more than 600 µM. On the same count and under the same terms, the same measure for `COc1ccc2cc1Oc1ccc(cc1)C[C@H]1c3cc(c(OC)cc3CCN1C)Oc1c(OC)c(OC)c(OC)c3c1[C@H](C2)N(C)CC3` [HERNANDEZINE]: more than 306 µM; for `CC(=O)N[C@H]1[C@H](O[C@H]2CC[C@]3(C)[C@H]4CC=C5[C@H]6CC(C)(C)CC[C@]6(C(=O)O)CC[C@@]5(C)[C@]4(C)CC[C@H]3C2(C)C)O[C@H](CO)[C@@H](O)[C@@H]1O` [ARIDANIN]: more than 303 µM; for `CC[C@]12CN3CCc4c([nH]c5ccccc45)[C@@](C(=O)OC)(c4cc5c(cc4OC)N(C)[C@H]4[C@@](O)(C(=O)OC)[C@H](OC(C)=O)[C@]6(CC)C=CCN7CC[C@]54[C@@H]76)C[C@@H](C3)[C@H]1O2` [VINLEUROSINE SULFATE]: more than 233 µM.

In the case of `C/C=C(/C)C(=O)O[C@H]1CC[C@@]2(C)[C@@H]3CC[C@H]4[C@]5(O)C[C@H](O)[C@@]6(O)[C@@H](CN7C[C@@H](C)CC[C@H]7[C@@]6(C)O)[C@]5(O)C[C@]42O[C@]13O` [VERATRINE], the concentration for half-maximal inhibition (IC50) was more than 338 µM. The same measure, in the same setting: the same measure for `CC1=C(C)C(=O)O[C@@H]([C@](C)(O)[C@]2(O)CC[C@@]3(O)[C@@H]4C[C@H]5O[C@]56[C@@H](O)C=CC(=O)[C@]6(C)[C@H]4CC[C@]23C)C1`: more than 398 µM. Still for that read-out and setting: in the case of `COC(=O)C1=CO[C@@H](O[C@@H]2O[C@H](CO)[C@@H](O)[C@H](O)[C@H]2O)[C@H]2[C@@H]1C=C[C@@]21C=C([C@H](C)OC(=O)/C=C/c2ccc(O)cc2)C(=O)O1` it was more than 324 µM. On the same count and under the same terms, the same measure for `O=C1CCC[C@H]2[C@@H]3CCCN4CCC[C@H](CN12)[C@@H]34` [LEONTINE]: more than 805 µM; for `C[C@]12CCC(=O)C=C1CC[C@@H]1[C@@H]2CC[C@]2(C)C(=O)CC[C@@H]12` [ANDROSTENEDIONE]: more than 698 µM. Turning to `CC[C@@]12CCCN3CC[C@]4(c5cccc(OC)c5N(C(C)=O)[C@@H]4CC1)[C@H]32` [ASPIDOSPERMINE], the IC50 was more than 564 µM. For `CC(=O)N[C@H]1[C@@H](O[C@H]2[C@H](O)[C@@H](O)[C@H](O[C@H]3[C@H](CS(=O)(=O)O)[C@@H](OS(=O)(=O)O)[C@@H](O[C@H]4[C@H](O)[C@@H](OS(=O)(=O)O)C(O)O[C@H]4C(=O)O)O[C@@H]3O)O[C@@H]2C(=O)O)O[C@H](COS(=O)(=O)O)[C@@H](O)[C@@H]1O` (some centres not stated) [SODIUM HEPARIN], the IC50 is more than 192 µM.

As for `Cn1cncc1C[C@H]1COC(=O)[C@@H]1[C@@H](O)c1ccccc1` [ISOPILOSINE], the IC50 was more than 698 µM. On the same count and under the same terms, in the case of `Cc1c2ccncc2c(C)c2c1[nH]c1ccccc12` [ELLIPTECINE] it was less than 609 µM; in that of `CC[C@@]12CCCN3CC[C@@]4(C(=Nc5c(OC)cccc54)CC1)[C@H]32`, more than 644 µM; in that of `COC(=O)[C@H]1[C@H]2C[C@@H]3c4[nH]c5ccccc5c4CCN3C[C@H]2C[C@@H](O)[C@@H]1OC(=O)c1cc(OC)c(OC)c(OC)c1` [ISORAUNESCINE], more than 354 µM. `COc1cc2c(cc1O)C[C@H]1c3c(cc(O)c(OC)c3-2)CCN1C` [BOLDINE]: the IC50 was more than 611 µM. On the same count and under the same terms, the same measure for `COc1ccc(C(=O)Cc2c(CCN(C)C)cc3c(c2OC)OCO3)c(C(=O)O)c1OC` [NARCEINE]: more than 449 µM. With `C/C=C1/C=[N+]2[C@H]3C[C@H]1[C@H](C(=O)OC)[C@@H]2Cc1c3[nH]c2ccc(O)cc12` [PERICYCLIVINE], the IC50 is more than 593 µM.

The target of a further test is Human immunodeficiency virus type 1 reverse transcriptase (Human immunodeficiency virus 1) (UniProt Q72547). Nature of the test: Inhibition of HIV1 RT at 200 ug/ml.
Settings: not given
The compound `COc1ccc2c(c1OC)CN1CCc3cc4c(cc3C1C2)OCO4` (configuration not stated) [TETRAHYDROBERBERINE] yielded an inhibition of 25%. On to `COc1ccc2c(c1O)-c1c(O)c(OC)cc3c1[C@H](C2)[N+](C)(C)CC3` [MAGNOFLORINE CHLORIDE], for which the inhibition is less than 10%. Same read-out and setting: in the case of `COc1cc2c(cc1OC)[C@@H]1Cc3ccc(OC)c(O)c3CN1CC2` [TETRAHYDROPALMATRUBINE] it was 25%; in that of `COc1cc2c(ccc3c4cc(OC)c(OC)cc4cnc23)cc1O`, less than 10%.
